Where “and” joins values, the source holds several entries; their conditions need not be identical. Equal entries are not always repeated. Entries after “also recorded” stand apart in the source; their conditions may differ. Structures can show the parent of a compound that is named as a salt.
Columns and labels:
psychLight2 [1] = settings: mouse, in vivo
Source text: Three animals were used for experiments measuring sensor activity in the prelimbic cortex.

psychLight1 [2] = assay: cell-based; assay type: cell-based, human
Method: (§1) HEK293T cells were grown in DMEM, supplemented with fetal bovine serum (FBS) and penicillin-streptomycin. Cells were trans-fected with Effectene according to the manufacturer's instructions. Prior to imaging, cells were washed with Hank's Balanced Salt Solution (HBSS) supplemented with 2 mM MgCl2 and 2 mM CaCl2). All images were collected in HBSS containing Mg^2+ and Ca^2+.
(§2) HEK293T cells were plated and transfected concurrently 24 h prior to each experiment using the QIAGEN Effectene Transfection
(§3) Dose-response experiments were performed using an Automate Perfusion System. Cells (HEK293T) were grown on 12 mm cover-slips and transfected with psychLight1. The coverslips were then placed into a coverslip holder and washed with 5 mL of HBSS containing 2 mM MgCl2 and 2 mM CaCl2). Cells were perfused first with 5 mL of 0.1% DMSO, then drugs in ascending concentrations from 1 pM to […] were added, with the concentration of DMSO being held constant at 0.10%. […] For the competition studies described in FIG. 19, HEK293T cells were prepared as described above; however, the cells were first exposed to 5 mL of 0.2% DMSO. […] Analysis was performed by taking 3 ROIs on the cell membrane using ImageJ and calculating the mean intensity for each ROI across the time-points. Finally, the DF/F was calculated using the average of the baseline (0.1 or 0.2% DMSO) and the average intensity between each dosage over the average of the baseline.

psychLight1 [3] = target: psychLight1 (Homo sapiens, UniProt P28223, E264Q/I181A); assay: cell-based; assay type: cell-based
Chain of psychLight1 (Homo sapiens, UniProt P28223, E264Q/I181A) (P28223 whole entry I181A/E264Q, looked up): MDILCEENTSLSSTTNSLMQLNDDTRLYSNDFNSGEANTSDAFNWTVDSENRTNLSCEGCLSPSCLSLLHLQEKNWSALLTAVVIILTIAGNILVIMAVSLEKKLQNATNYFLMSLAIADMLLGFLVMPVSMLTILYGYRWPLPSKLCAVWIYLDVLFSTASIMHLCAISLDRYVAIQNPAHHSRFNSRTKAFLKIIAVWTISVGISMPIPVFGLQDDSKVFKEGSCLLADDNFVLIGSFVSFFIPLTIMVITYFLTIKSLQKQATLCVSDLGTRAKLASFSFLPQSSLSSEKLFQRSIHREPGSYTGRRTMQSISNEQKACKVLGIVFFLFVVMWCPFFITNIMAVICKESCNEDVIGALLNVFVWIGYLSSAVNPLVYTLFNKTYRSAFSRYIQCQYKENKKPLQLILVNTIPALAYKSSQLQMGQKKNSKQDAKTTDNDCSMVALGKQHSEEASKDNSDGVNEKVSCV
Method: as §1, §2, §3

psychLight2 [4] = assay: PSYLI2 high-content imaging, agonist mode; assay type: cell-based, human; settings: for screen outcome in agonist mode: 10 μM compound, hit limit 1 SD from vehicle
Method: (§4) High-Content Imaging Experiments. Glass bottom 96-well plates (P96-1.5H-N, Cellvis) were coated with 50 μg/mL of poly-D-lysine (Sigma, P6407-5MG) and 10 μg/mL laminin (Sigma, L2020) overnight in an incubator (37° C., 5% CO2). […] Immediately prior to an experiment, stock solutions of drugs in DMSO (10 mM) were first diluted 1:100 in imaging media distributed across an empty 96-well plate (treatment plate) in triplicates following a randomized plate map. […] Cells grown in a separate 96-well plate (assay plate) were gently washed (3×) with imaging media, and the wells were filled with an appropriate volume of imaging media for the respective experiment (vide infra).
(§5) For agonist mode, […] of imaging media was added to each well of the assay plate. Wells were then imaged on a Lecia DMi8 using Leica Application Suite X (V3.6.0.20104) at 40×(N.A.=0.6) with 5 regions of interest (ROI) taken per well using the default 5 ROI pattern for each well with no bias to location and no overlap of the ROIs (exposure=350 ms, LED power=80%). Next, 20 μL from the treatment plate was transferred to the assay plate for a total 1:1000 dilution of drug (10 μM drug, 0.1% DMSO). […] All final concentrations of drugs were 10 μM (0.1% DMSO) in agonist mode unless stated otherwise. After 5 min of incubation, the same sites were re-imaged using the same settings.
Once imaging was complete, the images were exported, put into a stack, and analyzed using ImageJ Fiji (ver. 1.51v) by using the rectangle function to draw an ROI around the cell membrane (one cell per image) on both the pre- and posttreatment images. ROI sizes within each plate were kept the same and saved to the ROI manager in ImageJ (ctrl+T). Images were then measured using the “multi measure” function in the ROI manager. Measurements were saved and exported. Analysis of the data was done by taking the average of each individual well's ROIs before and after drugs were added. Then the ΔF/F values for each well were calculated using the following equation: […]
as §4, with “Glass” for “High-Content Imaging Experiments. Glass”, “50 µg/mL” for “50 μg/mL”, “10 pg/mL of” for “10 μg/mL”, “were” for “were first”, “in triplicate” for “in triplicates”, “washed 3×” for “washed (3×)”
as §5, with “agonist mode experiments,” for “agonist mode,”, “media were” for “media was”, “20 pL” for “20 μL”, “plate containing” for “plate for”, “a” for “a total”, “(10 pM as the final concentration in” for “(10 μM drug,”
Once imaging was complete, the images were exported, and analyzed using self-written MATLAB script. Script will be deposit on to Github. In short, segmentation was performed on individual images and a mask highlighting the membrane of the HEK293T cells was generated. Pixel intensities were obtained from the mask-highlighted area and exported into Excel. The ΔF/F values for each well were calculated using the following equation: […]

C57BL/6J mice [5] = assay: Forced swim test (FST); assay type: in vivo, mouse
C57BL/6J mice [6] = assay: Locomotion assay; assay type: in vivo, mouse; settings: i.p., multiple doses
Method: (§6) The HTR assay was performed as described previously using both male and female C57BL/6J mice (2 male and 2 female=4 total per treatment). The mice were obtained from The Jackson Laboratory (Sacramento, C.A.) and were approximately 8-weeks old at the time of the experiments. Compounds were administered (5 mL/kg, i.p.) using 0.9% saline as the vehicle. After injection, animals were placed into an empty cage (8″×13″×5″) and HTRs were videotaped, scored later by two blinded observers, and the results were averaged (interpersonnel kappas, Pearson correlation coefficient>0.91). Locomotion was assessed using AnyMaze automated tracking software.

[7] = test system: embryonic rat cortical neurons; assay: Dendritogenesis (Sholl analysis) in cultured cortical neurons; assay type: cell-based
Method: For the dendritogenesis experiments conducted using cultured E18 cortical neurons, timed-pregnant Sprague Dawley rats were obtained from Charles River Laboratories (Wilmington, MA). Full culturing, staining, and analysis details were performed as previously described.

VMAT2-HET mice = assay: Sucrose preference (anhedonia) test; assay type: in vivo, mouse
Method: Adult male and female wild-type (WT) and VMAT2 heterozygous (VMAT2-HET) mice were used for these experiments, and they were housed in a humidity- and temperature-controlled room on a 14:10 h light:dark cycle. Mice were housed individually 48 h prior to the experiment with ad libitum access to chow and water. For each day's experiment, bottles were prepared with water or a 1% sucrose solution and these were weighed just prior to the test. Two h prior to the beginning of the dark cycle, the home-cage water bottle was removed. One h after onset of the dark cycle, a pair of bottles was placed into the home-cage. The mouse was given 2 h to drink, after which the bottles were removed and weighed immediately. Approximately 1 h later, the home-cage water bottle was returned. […] Once criterion was achieved, the mouse was presented with the water-sucrose (W-S) pairing. The next day (day 1), mice were administered an acute injection of AAZ-A-154 (15 mg/kg, i.p.) and 5 min later were given the W-S pairing (i.e., day 1). Subsequent W-S pairings were presented on days 2 and 4, and then at 4-day intervals. Preference for the sucrose bottle was calculated as the volume of sucrose consumed minus the volume of water consumed, divided by the total volume of liquid consumed. Preference scores approaching “0” indicated no preference for sucrose or water, whereas positive scores signified a preference for sucrose and negative scores denoted a preference for water.

psychLight = assay: Schild regression analysis in PSYLI2 cells; assay type: cell-based, human
Method: During imaging, […] of imaging media were added to each well of the assay plate. Wells were then imaged on a Lecia DMi8 using Leica Application Suite X (V3.6.0.20104) at 40×(N.A.=0.6) with 5 regions of interest (ROI) taken per well using the default 5 ROI pattern for each well with no bias to location and no overlap of the ROIs (exposure=350 ms, LED power=80%). Next, […] from the treatment plate was transferred to the assay plate for a final 1:1000 dilution of drug. All final drug treatments contained 0.1% DMSO. After 5 min of incubation, the same sites were re-imaged using the same settings. The data analysis method was the same as in agonist and antagonist mode.

C57BL/6J mice [8] = assay: Head-twitch response (HTR) assay; assay type: in vivo, mouse; settings: i.p., multiple doses
Method: as §6

psychLight2 [9] = assay type: cell-based, human
Method: Compounds unlikely to bind to the sensor should produce minimal to no response in either agonist or antagonist mode. Therefore, a ligand score was calculated as: […]

[10] = test system: GPCR-based sensors (dopamine, adrenergic, opioid, and serotonin receptors); assay type: cell-based; settings: 10 μM AAZ-A-154, agonist and antagonist mode
[11] = Plate reader screening for compound fluorescence (cell-free); assay type: physicochemical; settings: 10 μM, excitation 465 nm, emission 518 nm
dLight = assay type: cell-based
psychLight2 [12] = assay type: cell-based, mouse
[13] = test system: 5-HT levels reported by psychLight2 in DRN, BNST, BLA, OFC; assay type: in vivo, mouse; settings: 10 mg/kg, 30 mins prior to imaging
[14] = test system: psychLight2 response to electrically evoked 5-HT release; parameters: species or system mouse; settings: 50 mM escitalopram as printed

Structure (SMILES): COc1ccc2[nH]cc(CCN(C)C)c2c1 [5-MeO, 5-methoxy-N,N-dimethyltrytamine]
- head-twitch response during fiber photometry (psychLight2 [1]): concomitant increase in HTR
- psychLight2 fluorescence in prelimbic cortex after injection (psychLight2 [1]): sharp increase in fluorescence
- fluorescence intensity change, confocal with psychLight1 (psychLight1 [2]): 48.4±3.1%
- EC50 (psychLight1 [2]; read-out: EC50 (half maximal effective concentration)): 157 nM
- Emax (psychLight1 [3]): 48.4%
- fluorescence intensity change, high content imager with psychLight2 (psychLight2 [4]): 24.1±4.6%

Structure (SMILES): COc1ccc2c(ccn2C[C@@H](C)N(C)C)c1.O=C(O)/C=C/C(=O)O [AAZ-A-154]
- immobility in the forced swim test (C57BL/6J mice [5]; 20 mg/kg i.p.): decreased immobility
- time course of antidepressant-like effects in FST (C57BL/6J mice [5]; single administration 20 mg/kg, tested 30 min and 1 week later): both rapid (30 min) and long-lasting (1 week) antidepressant-like effects
- locomotion (C57BL/6J mice [6]): a high dose of the compound did decrease locomotion; also recorded: a high dose of AAZ-A-154 decreased locomotion; also recorded: only decreases locomotion at a very high dose (100 mg/kg)
- dendritic arbor complexity (Sholl analysis) [7]: increased dendritic arbor complexity; also recorded: increases dendritic arbor complexity to a comparable extent as the fast-acting antidepressant ketamine
- effect on dendritic growth in presence of ketanserin [7]: abrogated by the 5-HT2A antagonist ketanserin; also recorded: abolished by the 5-HT2R antagonist ketanserin
- sucrose preference of WT animals (VMAT2-HET mice; 15 mg/kg i.p.): had no effect on WT animals; also recorded: did not modify sucrose preference in the WT animals
- persistence of anti-anhedonic effect (VMAT2-HET mice; VMAT2-HET mice, single injection 15 mg/kg, listed as AAZ, 15 mg/kg): at least 12 days
- duration of beneficial behavioral effects (VMAT2-HET mice; rodents, single administration): > 1 week and > 2 week
- sucrose preference of VMAT2-HET mice after dosing (VMAT2-HET mice; single injection 15 mg/kg i.p.): sucrose preference that was indistinguishable from WT controls
- Schild regression (pA2) outcome (psychLight): psychLight competitive antagonist
- head-twitch response (HTR) (C57BL/6J mice [8]): did not produce any head-twitches, even up to doses as high as 100 mg/kg; also recorded: failed to produce any head-twitches, even up to doses as high as 100 mg/kg
- ligand score (psychLight2 [9]): favorable ligand score
- selectivity across receptor-based sensors [10]: high selectivity for 5-HT2 receptors
- screen outcome in agonist mode (psychLight2 [4]): decreased the intrinsic fluorescence of psychLight

Structure (SMILES): CCN(CC)C(=O)[C@@H]1C=C2c3cccc4[nH]c(Br)c(c34)C[C@H]2N(C)C1 [BOL-148, 2-bromo-lysergic acid di-ethylamide]
- origin of fluorescence signal, cell-free vs PSYLI2 cells [11]: due to the inherent fluorescence of these compounds, and not due to activation of the sensor
- screen outcome in agonist mode (psychLight2 [4]): producing positive signals; also recorded: produced unexpected fluorescence signals

Structure (SMILES): CCN(CC)C(=O)[C@@H]1C=C2c3cccc4[nH]cc(c34)C[C@H]2N(C)C1 [LSD, lysergic acid diethylamide]
- activation of dLight (dLight): both activated dLight to the same extent

Structure (SMILES): CP(C)C.F[P-](F)(F)(F)(F)F.F[P-](F)(F)(F)(F)F.NCCc1c[nH]c2ccc(O)cc12.[Ru+2].c1ccc(-c2ccccn2)nc1.c1ccc(-c2ccccn2)nc1 [RuBi-5-HT]
- ΔpL2/tdT (psychLight2 to tdTomato ratio vs baseline) (psychLight2 [12]): 111.2%±0.7%

Structure (SMILES): CN(C)CCC[C@@]1(c2ccc(F)cc2)OCc2cc(C#N)ccc21 [escitalopram, escitalopram oxalate]
- effect on 5-HT dynamics following foot shock [13]: mitigated the reduction in 5-HT levels observed following foot shock; also recorded: delayed the return of elevated 5-HT levels to baseline
- ΔF/F of psychLight2 response to electrical stimuli [14]: 18.4%±4.3%

Reference: US20230384333A1 (priority 2020, published 2023)
